Results from patent EP0000636A1, “Penem compounds, processes for their preparation, their use in pharmaceutical compositions and azetidinones used in their preparation” (GLAXO GROUP LIMITED, priority 1977, dated 1979).
In brackets after ≈: the same amount, converted by molar mass. Like-named read-outs stand apart in the source and are kept apart here.

What was measured:
H. influenzae 1184E = assay: Determination of Minimum Inhibitory Concentrations (MIC), agar dilution; format: cell-based; settings: Haemophilus influenzae
Source text: (§1) Biological testing of a number of compounds of the invention has provided the results shown below;-the test compounds are identified by their Example Numbers: 1. Determination of Minimum Inhibitory Concentrations (MIC)
(§2) Serial two-fold dilutions of freshly prepared test solutions were made into Oxoid No. 1 Nutrient agar with or without added enrichment and poured into petri diches. Plates were inoculated with a multipoint inoculator with inoculum containing approximately 10^5 colony forming units of the organisms shown in the following Tables, all of which organisms are clinical isolates. The MIC, quoted in the Tables as µg/ml, was read after 18 hours incubation at 37°C as the lowest concentration which inhibited growth.. N.T. means not tested.

Staph.aureus 853E = assay: as above; format: cell-based; settings: Staphylococcus aureus
Source text: as §1, §2

E. cloacae 1321E = assay: as above; format: cell-based; settings: Enterobacter cloacae
Source text: as §1, §2

Micrococcus Sp 1810E = assay: as above; format: cell-based; settings: SP1810E
Source text: as §1, §2

E. coli 851E = assay: as above; format: cell-based; settings: Escherichia coli
Source text: as §1, §2

E. cloacae 1051E = assay: as above; format: cell-based; settings: Enterobacter cloacae
Source text: as §1, §2

K. aerogenes 1522E = assay: as above; format: cell-based; settings: Klebsiella aerogenes
Source text: as §1, §2

S. marcescens 1324E = assay: as above; format: cell-based; settings: Serratia marcescens
Source text: as §1, §2

Toxicity (LD50) in mice = settings: mouse, in vivo, ip; administered intraperitoneally to mice
[1] = H. influenzae 1184E, clinical isolate, Oxoid No. 1 Nutrient agar, approximately 10^5 colony forming units, 18 hours at 37°C, read-out: MIC
[2] = Staph.aureus 853E, clinical isolate, Oxoid No. 1 Nutrient agar, approximately 10^5 colony forming units, 18 hours at 37°C, read-out: MIC
[3] = E. cloacae 1321E, clinical isolate, Oxoid No. 1 Nutrient agar, approximately 10^5 colony forming units, 18 hours at 37°C, read-out: MIC
[4] = Micrococcus Sp 1810E, clinical isolate, Oxoid No. 1 Nutrient agar, approximately 10^5 colony forming units, 18 hours at 37°C, read-out: MIC
[5] = E. coli 851E, clinical isolate, Oxoid No. 1 Nutrient agar, approximately 10^5 colony forming units, 18 hours at 37°C, read-out: MIC
[6] = E. cloacae 1051E, clinical isolate, Oxoid No. 1 Nutrient agar, approximately 10^5 colony forming units, 18 hours at 37°C, read-out: MIC
[7] = K. aerogenes 1522E, clinical isolate, Oxoid No. 1 Nutrient agar, approximately 10^5 colony forming units, 18 hours at 37°C, read-out: MIC
[8] = S. marcescens 1324E, clinical isolate, Oxoid No. 1 Nutrient agar, approximately 10^5 colony forming units, 18 hours at 37°C, read-out: MIC

| MIC (H. influenzae 1184E; [1]) [µg/mL] | MIC (Staph.aureus 853E; [2]) [µg/mL] | MIC (E. cloacae 1321E; [3]) [µg/mL] | MIC (Micrococcus Sp 1810E; [4]) [µg/mL] | MIC (E. coli 851E; [5]) [µg/mL] | MIC (E. cloacae 1051E; [6]) [µg/mL] | MIC (K. aerogenes 1522E; [7]) [µg/mL] | MIC (S. marcescens 1324E; [8]) [µg/mL] | SMILES | LD50 (Toxicity (LD50) in mice) [mg/kg] | MIC (H. influenzae 1184E; 1184E, 18 h) [µg/mL] | MIC (Staph.aureus 853E; 853E, 18 h) [µg/mL] | MIC (E. cloacae 1321E; 1321E, 18 h) [µg/mL] | MIC (Micrococcus Sp 1810E; Micrococcus, 18 h) [µg/mL] | MIC (E. coli 851E; 851E, 18 h) [µg/mL] | MIC (E. cloacae 1051E; 1051E, 18 h) [µg/mL] | MIC (K. aerogenes 1522E; 1522E, 18 h) [µg/mL] | MIC (S. marcescens 1324E; 1324E, 18 h) [µg/mL] |
| --- | --- | --- | --- | --- | --- | --- | --- | --- | --- | --- | --- | --- | --- | --- | --- | --- | --- |
| 8 | 0.5 | 4 | < 0.1 | 4 | 8 | 8 | 8 | O=C(O)C1=C(CCO)SC2CC(=O)N12 (racemic) [Example 11, Potassium (5RS)-2-(2-hdroxethyl)pen-2-em-3-carboxylate] |  |  |  |  |  |  |  |  |  |
| 2 (≈ 7.74 µM) | < 0.1 | 2 (≈ 7.74 µM) | < 0.1 | 2 (≈ 7.74 µM) | 8 (≈ 31 µM) | 4 (≈ 15.5 µM) | 4 (≈ 15.5 µM) | NC(=O)OCCC1=C(C(=O)O)N2C(=O)CC2S1 (racemic) [Example 18, (5RS)-2-(2-Carbamoyloxethyl)pen-2-em-3-carboxlic acid] |  |  |  |  |  |  |  |  |  |
| 4 (≈ 14.7 µM) | 0.2 (≈ 0.735 µM) | 4 (≈ 14.7 µM) | < 0.1 | 4 (≈ 14.7 µM) | 31 (≈ 114 µM) | 4 (≈ 14.7 µM) | 4 (≈ 14.7 µM) | CNC(=O)OCCC1=C(C(=O)O)N2C(=O)CC2S1 (racemic) [Example 21] |  |  |  |  |  |  |  |  |  |
| 4 (≈ 17.6 µM) | 0.5 (≈ 2.2 µM) | 31 (≈ 136 µM) |  | 31 (≈ 136 µM) | 125 (≈ 550 µM) | 31 (≈ 136 µM) | 31 (≈ 136 µM) | CCCCC1=C(C(=O)O)N2C(=O)CC2S1 (racemic) [Example 26, (5RS)2-n-Butylpen-2-em-3-carboxylic acid] |  |  |  |  |  |  |  |  |  |
| 1 (≈ 4.69 µM) | < 0.1 | 0.5 (≈ 2.34 µM) | < 0.1 | 0.5 (≈ 2.34 µM) | 4 (≈ 18.8 µM) | 0.5 (≈ 2.34 µM) | 1 (≈ 4.69 µM) | CCCC1=C(C(=O)O)N2C(=O)CC2S1 (racemic) [Example 28, (5RS)-2-ProD^ylpen-2-em-3-carboxylic acid] |  |  |  |  |  |  |  |  |  |
|  |  |  |  |  |  |  |  | CCC1=C(C(=O)[O-])N2C(=O)CC2[S+]1[O-].[K+] (racemic) [Example 36, Potassium (5RS)-2-ethylpen-2-em-3-carboxylate-1-oxide] | > 500 | 2 | 0.5 | 8 | 0.1 | 8 | 8 | 8 | 8 |
|  |  |  |  |  |  |  |  | O=C([O-])C1=C(CCOC2CCCCO2)SC2CC(=O)N12.[K+] (racemic) [Example 43, Potassium (5RS)-2-[2-(tetrahydropyran-2-yloxy)ethyl]-pen-2-em-3-carboxylate] | > 500 |  |  |  |  |  |  |  |  |
|  |  |  |  |  |  |  |  | COCCC1=C(C(=O)[O-])N2C(=O)CC2S1.[Na+] (racemic) [Example 45, Sodium (5RS)-2-(2-methoxyethyl)pen-2-em-3-carboxylate] |  | 4 | 0.5 | 2 | < 0.1 | 2 | 8 | 4 | 8 |
| 4 | 0.5 | 2 | 0.2 | 4 | 8 | 4 | 4 | COCC1=C(C(=O)O)N2C(=O)CC2S1 (racemic) [Example 52, Potassium (5RS)-2-methoxymethylen-2-em-3-carboxylate] |  |  |  |  |  |  |  |  |  |
|  |  |  |  |  |  |  |  | O=C(CCl)OCCC1=C(C(=O)[O-])N2C(=O)CC2S1.[K+] (racemic) [Example 57, Potassium (5RS)-2-[2-(2-chloroacetyl)oxyethyl]pen-2-em-3-carboxylate] |  | 4 | 0.5 | 8 | 0.2 | 8 | 16 | 8 | 8 |
| 4 (≈ 21.6 µM) | 1 (≈ 5.4 µM) | 8 (≈ 43.2 µM) | 0.2 (≈ 1.08 µM) | 8 (≈ 43.2 µM) | 16 (≈ 86.4 µM) | 16 (≈ 86.4 µM) | 8 (≈ 43.2 µM) | CC1=C(C(=O)O)N2C(=O)CC2S1 (single isomer, unassigned) [Example 6] |  |  |  |  |  |  |  |  |  |

| SMILES | MIC (H. influenzae 1184E; [1]) [µg/mL] | MIC (Staph.aureus 853E; [2]) [µg/mL] | MIC (E. cloacae 1321E; [3]) [µg/mL] | MIC (Micrococcus Sp 1810E; [4]) [µg/mL] | MIC (E. coli 851E; [5]) [µg/mL] | MIC (E. cloacae 1051E; [6]) [µg/mL] | MIC (K. aerogenes 1522E; [7]) [µg/mL] | MIC (S. marcescens 1324E; [8]) [µg/mL] | LD50 (Toxicity (LD50) in mice) [mg/kg] | MIC (H. influenzae 1184E; 1184E, 18 h) [µg/mL] | MIC (Staph.aureus 853E; 853E, 18 h) [µg/mL] | MIC (E. cloacae 1321E; 1321E, 18 h) [µg/mL] | MIC (Micrococcus Sp 1810E; Micrococcus, 18 h) [µg/mL] | MIC (E. coli 851E; 851E, 18 h) [µg/mL] | MIC (E. cloacae 1051E; 1051E, 18 h) [µg/mL] | MIC (K. aerogenes 1522E; 1522E, 18 h) [µg/mL] | MIC (S. marcescens 1324E; 1324E, 18 h) [µg/mL] |
| --- | --- | --- | --- | --- | --- | --- | --- | --- | --- | --- | --- | --- | --- | --- | --- | --- | --- |
| CC(=O)OCCC1=C(C(=O)O)N2C(=O)CC2S1 (racemic) [Example 13, Potassium (5RS)-2-(2-acetoxethyl)pen-2-em-3-carbolate] |  | 0.5 | 2 | 0.2 | 4 | 16 | 8 | 62 |  |  |  |  |  |  |  |  |  |
